Values quoted from earlier work as cited in patent US10709795B2, “Method for delivering pharmaceutical nanoparticles to cancer cells” (National Guard Health Affairs, priority 2017, dated 2020).
Like-named read-outs stand apart in the source and are kept apart here.

Key:
[1] = not given; remark: listed apart in the source
[2] = Grades 1-4, N = 2448, 1st line of this name
[3] = Grades 1-4, N = 2448, 2nd line of this name

For N#Cc1ccc(C(c2ccc(C#N)cc2)n2cncn2)cc1 [Femara, Letrozole], the “Endometrial Hyperplasia/Cancer, %” value (Grades 1-4, 1st line of this name) is given as 0.8%, the “Endometrial Hyperplasia/Cancer, %” value (Grades 1-4, 2nd line of this name) is given as 0.3% and the “Alopecia, %” value (Grades 1-4, N = 2448) is given as 3.4%. For the same compound, the “Angina, %” value (Grades 1-4, N = 2448) was 1.3%, the “Angine, %” value (Grades 1-4, N = 2448) was 1.1% and the “Anorexia, %” value (Grades 1-4, N = 2448) was 1.5%. For the same compound, the “Arthralgia/Arthritis, %” value (Grades 1-4, N = 2448) was 25.2%, the “Back pain, %” value (Grades 1-4, N = 2448) was 5.1% and the “Bone Pain, %” value (Grades 1-4, N = 2448) was 5.0%. For the same compound, the “Breast Pain, %” value (Grades 1-4, N = 2448) was 2.0%, the “Cataract, %” value (Grades 1-4, N = 2448) was 2.0% and the “Constipation, %” value (Grades 1-4, N = 2448) was 2.0%. For the same compound, the “Depression, %” value (Grades 1-4, N = 2448) was 4.9%, the “Dizziness/Light headedness, %” value (Grades 1-4, N = 2448) was 3.4% and the “Edema, %” value (Grades 1-4, N = 2448) was 6.7%. The “Endometrial proliferation Disorders, %” value (Grades 1-4, N = 2448) was 0.3%, the “Fatigue (Lethargy, Malaise, Asthenia), %” value (Grades 1-4, N = 2448) was 9.6% and the “Headache, %” value (Grades 1-4, N = 2448) was 4.3%. For the same compound, the “Hot Flashes/Flushes, %” value (Grades 1-4, N = 2448) was 33.5%, the “Hypercholesterolemia, %” value (Grades 1-4, N = 2448) was 52.3% and the “Myalgia, %” value (Grades 1-4, N = 2448) was 8.9%. The “Myocardial Ischemia, %” value (Grades 1-4, N = 2448) was 0.2%, the “Nausea, %” value (Grades 1-4, N = 2448) was 11.6% and the “Night Sweats, %” value (Grades 1-4, N = 2448) was 25.2%. The “Osteopenia, %” value (Grades 1-4, N = 2448) was 3.6%, the “Osteoporosis NOS, %” value (Grades 1-4, N = 2448) was 5.1% and the “Other Endometrial Disorders, %” value (Grades 1-4, N = 2448) was under 0.1%. For the same compound, the “Pain in extremity, %” value (Grades 1-4, N = 2448) was 4.2%, the “Pts with any adverse event, %” value (Grades 1-4, N = 2448) was 94.4% and the “Vaginal Bleeding, %” value (Grades 1-4, N = 2448) was 5.2%. The “Vaginal Irritation, %” value (Grades 1-4, N = 2448) was 4.5%, the “Vomiting, %” value (Grades 1-4, N = 2448) was 3.3% and the “Weight Decrease, %” value (Grades 1-4, N = 2448) was 5.7%. The “Weight Increase, %” value (Grades 1-4, N = 2448) was 13.8%, the “Bone Fractures, %” value [2] was 14.6% and the “Cerebrovascular Accident, %” value [2] was 2.1%. The “Myocardial Infarction, %” value [2] was 1.0%, the “Other Cardiovascular1, %” value [2] was 10.6% and the “Second Malignancies, %” value [2] was 2.2%. The “Thromboembolic Event, %” value [2] was 2.1%, the “Bone Fractures, %” value [3] was 10.1% and the “Cerebrovascular Accident, %” value [3] was 2.9%. For the same compound, the “Myocardial Infarction, %” value [3] was 1.5%, the “Other Cardiovascular1, %” value [3] was 12.7% and the “Second Malignancies, %” value [3] was 4.2%. The “Thromboembolic Event, %” value [3] was 2.9%, the “Anorexia, %” value (Grades 3-4, N = 2448) was under 0.1% and the “Arthralgia/Arthritis, %” value (Grades 3-4, N = 2448) was 3.5%. For the same compound, the “Back pain, %” value (Grades 3-4, N = 2448) was 0.3%, the “Bone Pain, %” value (Grades 3-4, N = 2448) was 0.2% and the “Breast Pain, %” value (Grades 3-4, N = 2448) was under 0.1%. For the same compound, the “Cataract, %” value (Grades 3-4, N = 2448) was 0.7%, the “Constipation, %” value (Grades 3-4, N = 2448) was 0.1% and the “Depression, %” value (Grades 3-4, N = 2448) was 0.7%. The “Dizziness/Light headedness, %” value (Grades 3-4, N = 2448) was under 0.1%, the “Edema, %” value (Grades 3-4, N = 2448) was 0.1% and the “Fatigue (Lethargy, Malaise, Asthenia), %” value (Grades 3-4, N = 2448) was 0.2%. The “Headache, %” value (Grades 3-4, N = 2448) was 0.4%, the “Hypercholesterolemia, %” value (Grades 3-4, N = 2448) was 0.4% and the “Myalgia, %” value (Grades 3-4, N = 2448) was 0.7%. For the same compound, the “Nausea, %” value (Grades 3-4, N = 2448) was 0.2%, the “Osteoporosis NOS, %” value (Grades 3-4, N = 2448) was 0.4% and the “Pain in extremity, %” value (Grades 3-4, N = 2448) was 0.1%. The “Pts with any adverse event, %” value (Grades 3-4, N = 2448) was 25.9%, the “Vaginal Bleeding, %” value (Grades 3-4, N = 2448) was under 0.1% and the “Vaginal Irritation, %” value (Grades 3-4, N = 2448) was under 0.1%. The “Vomiting, %” value (Grades 3-4, N = 2448) was 0.1%, the “Weight Decrease, %” value (Grades 3-4, N = 2448) was 0.3% and the “Weight Increase, %” value (Grades 3-4, N = 2448) was 1.1%. The “water solubility (in words)” value [1] was “water insoluble”.
